Data taken from US9943082B2, “Ternary fungicidal mixtures” (BAYER CROPSCIENCE AG, priority 2012, dated 2018).

Tested on: Puccinia triticina
Test: Puccinia triticina test (wheat)/preventive
Assay type: in vivo
Conditions: preventive spray, evaluated 8 days after inoculation
Protocol: To produce a suitable preparation of active compound, 1 part by weight of active compound or active compound combination is mixed with the stated amounts of solvent and emulsifier, and the concentrate is diluted with water to the desired concentration.
To test for preventive activity, young plants are sprayed with the preparation of active compound or active compound combination at the stated rate of application.
After the spray coating has been dried, the plants are sprayed with a spore suspension of Puccinia triticina. The plants remain for 48 hours in an incubation cabinet at approximately 20° C. and a relative atmospheric humidity of approximately 100%.
The plants are placed in the greenhouse at a temperature of approximately 20° C. and a relative atmospheric humidity of approximately 80%.
The test is evaluated 8 days after the inoculation. 0% means an efficacy which corresponds to that of the untreated control, while an efficacy of 100% means that no disease is observed.

Which “Efficacy in % found” value (10 ppm a.i.) does the source give for CON=C(C(=O)OC)c1ccccc1CON=C(C)c1cccc(C(F)(F)F)c1 [3.15 trifloxystrobin, trifloxystrobin] here?
The value was 33%.

How did the “Efficacy in % found” value (30 ppm a.i.) turn out when CC1CC(C)(C)c2cccc(NC(=O)c3cn(C)nc3C(F)F)c21 (centres unmarked) [(I-1), 3-(difluoromethyl)-1-methyl-N-(1,1,3-trimethyl-2,3-dihydro-1H-inden-4-yl)-1H-pyrazole-4-carboxamide] was run?
The value was 78%.

For COC(=O)N(OC)c1ccccc1COc1ccn(-c2ccc(Cl)cc2)n1 [3.14 pyraclostrobin, pyraclostrobin], which “Efficacy in % found” value (10 ppm a.i.) is on record?
Its value is 22%.

With CO/C=C(/C(=O)OC)c1ccccc1Oc1cc(Oc2ccccc2C#N)ncn1 [3.2 azoxystrobin, azoxystrobin] as the compound, how does the “Efficacy in % found” value (10 ppm a.i.) read?
Its value is 78%.

OC(Cc1ccccc1Cl)(Cn1nc[nH]c1=S)C1(Cl)CC1 (centres unmarked) [2.23 prothioconazole, prothioconazole] was tested. Which “Efficacy in % found” value (20 ppm a.i.) did it give?
Its value is 0%.
